Results on 13 compounds are retold here after patent publication US20050182040A1, “Benzamide derivatives” (priority 2002, published 2005).

Each structure is given as a SMILES string.

One may read the IC50 as the concentration needed to halve the response being measured. A high value points to weaker potency in that assay. As usually defined, the melting point is the temperature of the solid-liquid transition.

For the first series, the target named is T1, Rho kinase (Bos taurus, UniProt Q28021).
T1 construct: Rho kinase was selectively immobilized from the bovine brain extract fraction; from tissue; host or cells: bovine brain gray matter extract, captured on an anti-ROKII peptide antibody plate
T1 sequence (Q28021 whole entry): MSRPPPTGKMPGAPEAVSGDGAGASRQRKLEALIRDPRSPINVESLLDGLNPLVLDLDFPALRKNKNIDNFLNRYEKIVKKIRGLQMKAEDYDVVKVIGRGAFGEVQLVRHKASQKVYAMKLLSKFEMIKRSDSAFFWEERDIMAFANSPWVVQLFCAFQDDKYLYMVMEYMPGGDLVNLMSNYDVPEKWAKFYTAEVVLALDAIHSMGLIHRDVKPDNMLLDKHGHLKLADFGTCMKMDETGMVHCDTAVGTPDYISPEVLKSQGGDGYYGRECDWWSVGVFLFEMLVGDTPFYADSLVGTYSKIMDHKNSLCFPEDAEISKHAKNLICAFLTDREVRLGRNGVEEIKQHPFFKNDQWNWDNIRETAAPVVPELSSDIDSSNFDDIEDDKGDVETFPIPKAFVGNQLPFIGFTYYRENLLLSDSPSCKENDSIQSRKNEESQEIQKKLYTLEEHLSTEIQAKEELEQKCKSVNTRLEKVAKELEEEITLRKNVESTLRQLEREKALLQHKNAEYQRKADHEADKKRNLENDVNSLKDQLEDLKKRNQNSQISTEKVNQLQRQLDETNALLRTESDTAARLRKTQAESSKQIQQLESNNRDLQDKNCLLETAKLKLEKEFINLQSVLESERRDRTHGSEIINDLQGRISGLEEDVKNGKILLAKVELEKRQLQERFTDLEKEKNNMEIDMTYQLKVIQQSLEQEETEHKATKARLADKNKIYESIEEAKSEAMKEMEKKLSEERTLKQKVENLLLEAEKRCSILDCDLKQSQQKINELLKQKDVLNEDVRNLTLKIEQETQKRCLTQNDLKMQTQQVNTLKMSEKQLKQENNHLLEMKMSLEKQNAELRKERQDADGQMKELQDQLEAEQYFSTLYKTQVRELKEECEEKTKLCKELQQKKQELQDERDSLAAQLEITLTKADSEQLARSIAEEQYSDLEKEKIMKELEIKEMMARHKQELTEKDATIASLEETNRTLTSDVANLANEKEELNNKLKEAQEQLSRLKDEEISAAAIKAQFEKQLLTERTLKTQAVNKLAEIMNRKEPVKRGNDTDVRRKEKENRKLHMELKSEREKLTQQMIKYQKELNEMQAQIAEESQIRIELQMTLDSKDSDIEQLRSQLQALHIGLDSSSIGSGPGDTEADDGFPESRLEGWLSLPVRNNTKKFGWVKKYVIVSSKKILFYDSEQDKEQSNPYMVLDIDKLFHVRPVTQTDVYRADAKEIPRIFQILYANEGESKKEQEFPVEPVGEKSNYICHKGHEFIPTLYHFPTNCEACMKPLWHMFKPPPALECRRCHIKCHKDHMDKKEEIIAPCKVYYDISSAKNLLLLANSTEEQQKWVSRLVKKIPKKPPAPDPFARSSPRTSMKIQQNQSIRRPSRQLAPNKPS
The series can be described thus: Assay of the inhibition of phosphorylation by Rho kinase. Format: biochemical. Conditions: Rho kinase immobilized from bovine brain extract fraction on anti-Rho kinase antibody plate; 0.1 μM ATP ([γ-32P]ATP), histone (HF2A) substrate; room temperature, 4 hours. The method, then: Assay of the inhibition of phosphorylation by Rho kinase
A bovine brain extract fraction was prepared as follows. That is, a piece of gray matter was minced from bovine brain and suspended in a buffer solution for immunoprecipitation (10 mM tris(hydroxymethyl)aminomethane (Tris) (pH 7.5), 1% Triton X-100, 0.5% NP-40, 150 mM NaCl, 20 mM sodium fluoride, 1 mM ethylenediaminetetraacetic acid (EDTA), 1 mM ethylene glycol bis(β-aminoethyl ether)-N,N,N′,N′-tetraacetic acid (EGTA) and 0.2 mM phenylmethylsulfonyl fluoride (PMSF)) in two volumes of the gray matter. The tissue was homogenized by the use of a Potter type homogenizer made of polytetrafluoroethylene. After the homogenate was centrifuged at 20,000 g for 15 minutes, the supernatant was collected and then subjected to ultracentrifugation at 100,000 g for 60 minutes. The resulting supernatant was used as a bovine brain extract fraction.
An anti-Rho kinase antibody immobilized plate was prepared as follows. That is, a secondary antibody (anti-goat IgG (Fc) antibody) was diluted 300-fold with phosphate-buffered saline (PBS) (1 μl antibody/300 μl PBS), and 100 μl of the resulting dilution was added to each well of a 96-well ELISA plate. After coating at room temperature for 2 hours, the supernatant was removed. Thereafter, 100 μl of PBS was added and then the supernatant was removed (this washing operation was carried out twice). After the washing, 100 μl of a blocking buffer solution (0.05% Tween 20 and 0.25% bovine serum albumin (fatty acid free)/PBS) was added, followed by blocking at room temperature for 1 hour. After the blocking, each well was washed twice with 100 μl of the blocking buffer solution, and 100 μl of a primary antibody (anti-ROKII (Rho kinase) peptide antibody) diluted 200-fold (0.5 μl (0.1 μg)/100 μl) with PBS was added, followed by coating at room temperature for 2 hours. After the coating, each well was washed once with 100 μl of the blocking buffer solution. In addition, 100 μl of the blocking buffer solution was added to obtain an anti-Rho kinase antibody immobilized plate.
Using the aforesaid plate, Rho kinase was selectively immobilized from the bovine brain extract fraction, and phosphorylation by Rho kinase was assayed. To each well of the antibody-immobilized plate was added 100 μl of a bovine brain extract solution prepared so as to have a concentration of 1.5 mg/ml, and the reactions were incubated at 4° C. for 1 hour to immobilize Rho kinase on the plate. After completion of the reaction, the supernatant was removed and each well was washed three times with 100 μl of the buffer solution for immunoprecipitation. In addition, each well was washed three times with 100 μl of buffer solution A (50 mM Tris (pH 7.5), 10 mM MgCl2 and 150 mM NaCl). To each well of the plate freed from the supernatant was added 40 μl of the aforesaid buffer solution for reaction (50 mM Tris-HCl (pH 7.5), 2 mM EDTA and 10 mM MgCl2). Further, adenosine 5′-triphosphate (ATP) buffer (0.1 μM ATP (containing 6 nM [v-^32P]ATP) and 10 μg histone (HF2A)) containing each compound was prepared, and 10 μl of this solution was added to each well of the plate to initiate the reaction. The reactions were carried out at room temperature for 4 hours. The reaction was terminated by the addition of a phosphoric acid solution of a final concentration of 75 mM and 50 μM ATP. After completion of the reaction, 50 μl of the reaction solutions were spotted onto a phosphocellulose filter for Beta Plate 1205 (Wallac) only. After completion of the spot, the filter was washed with 150 ml of a 75 mM phosphoric acid solution for 10 minutes. This washing operation was repeated three times. After completion of the washing, the filter was dried and then wrapped in a cellophane bag, and 10 ml of a liquid scintillation cocktail was added. The amount of energy (β-ray radioactivity count) trapped in the filter was measured with Beta Plate 1205. […]
Consider `COc1cc(N[C@H]2CC[C@H](N)CC2)c(Cl)cc1C(N)=O` [Example 113, 4-[(trans-4-aminocyclohexyl)amino]-5-chloro-2-methoxybenzamide], for which the IC50 is 21.8 nM. The same measure, in the same setting: under `COc1cc(O[C@H]2CC[C@H](N)CC2)c(Cl)cc1C(N)=O` [Example 159, 4-[(trans-4-aminocyclohexyl)-oxy]-5-chloro-2-methoxybenzamide] stands 24.4 nM; under `NC(=O)c1cc(Br)c(N[C@H]2CC[C@H](N)CC2)cc1F` [Example 163, 4-[trans-(4-aminocyclohexyl)-amino]-5-bromo-2-fluorobenzamide], 24.8 nM; under `NC(=O)c1cc(F)c(N[C@H]2CC[C@H](N)CC2)cc1F` [Example 162, 4-[trans-(4-aminocyclohexyl)-amino]-2,5-difluorobenzamide], 26.4 nM. The same measure, in the same setting: then `NC(=O)c1ccc(NC2CCN(Cc3ccccc3)CC2)cc1` [Example 10, 4-[(1-benzylpiperidin-4-yl)amino]benzamide], with 2000 nM; and `COc1cc(N[C@H]2CC[C@H](N)CC2)c(F)cc1C(N)=O` [Example 158, 4-[(trans-4-aminocyclo-hexyl)amino]-5-fluoro-2-methoxybenzamide], with 28.4 nM. The same measure, in the same setting: under `NC(=O)c1cc(Cl)c(N[C@H]2CC[C@H](N)CC2)cc1F` [Example 141, 4-[trans-(4-aminocyclohexyl)-amino]-5-chloro-2-fluorobenzamide] stands 28.7 nM.

Test system in a further series: not given
Experiment: not given
Details: not given
As to `COc1cc(NCc2ccccc2)ccc1C(N)=O` [Example 85, 4-(benzylamino)-2-methoxybenzamide], the melting point was in the range of 175 to 176 °C.

`NC(=O)c1ccc(OC2CCN(Cc3ccccc3)CC2)cc1` [Example 25, 4-[(1-benzylpiperidin-4-yl)oxy]benzamide] registered a melting point of 166 to 168 °C. Still for that read-out and setting: under `Cl.NC(=O)c1ccc(NC2CCNCC2)cc1` stands 292 to 294 °C (dec.); under `NC(=O)c1ccc(NC2CCN(Cc3ccccc3)CC2)cc1` [Example 10, 4-[(1-benzylpiperidin-4-yl)amino]benzamide], 192 to 193 °C; under `NC(=O)c1ccc(NC(=O)C2CCCN(Cc3ccccc3)C2)cc1` (centres unmarked) [Example 13, N-[4-(aminocarbonyl)phenyl]-1-benzylpiperidine-3-carboxamide], 211 to 212 °C. In turn, `COc1cc(NCc2ccncc2)ccc1C(N)=O` [Example 128, 2-Methoxy-4-[(pyridin-4-ylmethyl)amino]-benzamide] gave a melting point of 180 to 183 °C. On the same count and under the same terms, then `COc1cc(NC2CCN(Cc3ccccc3)CC2)ccc1C(N)=O` [Example 28, 4-[(1-benzylpiperidin-4-yl)amino]-2-methoxybenzamide], with 155 to 157 °C.
